Laboratory results as given in ChEMBL document CHEMBL3044789, “Comparing weed and crop seedling response to pre-emergence pendimethalin application in Corchorus olitorius and Abelmoschus esculentus” (Crop Prot, 2006).

Assays:
Synedrella nodiflora [1] = assay: Herbicidal activity against Synedrella nodiflora in Corchorus olitorius plots assessed as weed cover at 0.66 kg a.i/ha after 2 weeks (reference value: 81.7 +/- 0.43 %); format: functional
Corchorus olitorius [2] = assay: Phytotoxicity in Corchorus olitorius assessed as root length at 0.33 kg a.i/ha applied as solution after 7 weeks (reference value: 14.3 +/- 1.06 mm); format: organism-based; details: in vivo, other, 1176 h
Cyperus rotundus [3] = assay: Herbicidal activity against Cyperus rotundus in Abelmoschus esculentus plots assessed as weed cover at 0.66 kg a.i/ha after 7 weeks (reference value: 14.7 +/- 0.46 %); format: functional
[4] = system: Rottboellia cochinchinensis; assay: Herbicidal activity against Rottboellia cochinchinensis in Abelmoschus esculentus plots assessed as weed recovery at 0.33 kg a.i/ha after 2 weeks (reference value: 60.1 +/- 0.46 %); format: functional
Talinum fruticosum [5] = assay: Herbicidal activity against Talinum fruticosum in Abelmoschus esculentus plots assessed as weed cover at 0.99 kg a.i/ha after 7 weeks (reference value: 14.7 +/- 0.46 %); format: functional
Corchorus olitorius [6] = assay: Phytotoxicity in Corchorus olitorius assessed as root length at 0.99 kg a.i/ha treated to soil after 7 weeks (reference value: 16.9 +/- 0.09 mm); format: organism-based; details: in vivo, other, 1176 h
Ageratum conyzoides [7] = assay: Herbicidal activity against Ageratum conyzoides in Corchorus olitorius plots assessed as weed recovery at 0.33 kg a.i/ha after 2 weeks (reference value: 78.3 +/- 0.74 %); format: functional
Euphorbia heterophylla [8] = assay: Herbicidal activity against Euphorbia heterophylla in Abelmoschus esculentus plots assessed as weed cover at 1.32 kg a.i/ha after 4 weeks (reference value: 22.6 +/- 0.49 %); format: functional
Asteraceae = assay: Herbicidal activity against Aspilia africana in Corchorus olitorius plots assessed as minor weed growth at 0.66 kg a.i/ha after 2 weeks; format: functional
Euphorbia heterophylla [9] = assay: Herbicidal activity against Euphorbia heterophylla in Corchorus olitorius plots assessed as weed cover at 0.66 kg a.i/ha after 4 weeks (reference value: 20.1+/- 0.57 %); format: functional
Ageratum conyzoides [10] = assay: Herbicidal activity against Ageratum conyzoides in Abelmoschus esculentus plots assessed as weed cover at 0.33 kg a.i/ha after 2 weeks (reference value: 63.5 +/- 0.29 %); format: functional
Corchorus olitorius [11] = assay: Phytotoxicity in Corchorus olitorius assessed as shoot length at 0.33 kg a.i/ha treated to soil after 7 weeks (reference value: 23.7 +/- 0.10 mm); format: organism-based; details: in vivo, other, 1176 h
Talinum fruticosum [12] = assay: Herbicidal activity against Talinum fruticosum in Corchorus olitorius plots assessed as minor weed growth at 0.99 kg a.i/ha after 2 weeks; format: functional
Commelina diffusa = assay: Herbicidal activity against Commelina diffusa in Corchorus olitorius plots assessed as weed cover at 0.66 kg a.i/ha after 7 weeks (reference value: 1.7 +/- 0.56 %); format: functional
Corchorus olitorius [13] = assay: Phytotoxicity in Corchorus olitorius assessed as seed germination at 0.99 kg a.i/ha applied as solution after 7 weeks relative to untreated control; format: organism-based; details: in vivo, other, 1176 h
Chromolaena odorata [14] = assay: Herbicidal activity against Chromolaena odorata in Corchorus olitorius plots assessed as weed recovery at 1.32 kg a.i/ha after 2 weeks (reference value: 78.3 +/- 0.74 %); format: functional
Calopogonium mucunoides [15] = assay: Herbicidal activity against Calopogonium mucunoides in Corchorus olitorius plots assessed as major weed growth at 0.99 kg a.i/ha after 2 weeks; format: functional
Calopogonium mucunoides [16] = assay: Herbicidal activity against Calopogonium mucunoides in Corchorus olitorius plots assessed as weed cover at 0.33 kg a.i/ha after 2 weeks (reference value: 81.7 +/- 0.43 %); format: functional
Euphorbia heterophylla [17] = assay: Herbicidal activity against Euphorbia heterophylla in Abelmoschus esculentus plots assessed as major weed growth at 0.66 kg a.i/ha after 2 weeks; format: functional
Corchorus olitorius [18] = assay: Phytotoxicity in Corchorus olitorius assessed as shoot length at 0.66 kg a.i/ha applied as solution after 7 weeks (reference value: 22.9 +/- 0.8 mm); format: organism-based; details: in vivo, other, 1176 h
Corchorus olitorius [19] = assay: Phytotoxicity in Corchorus olitorius assessed as seed germination at 0.66 kg a.i/ha applied as solution after 7 weeks relative to untreated control; format: organism-based; details: in vivo, other, 1176 h
Chromolaena odorata [20] = assay: Herbicidal activity against Chromolaena odorata in Corchorus olitorius plots assessed as weed cover at 0.33 kg a.i/ha after 4 weeks (reference value: 20.1+/- 0.57 %); format: functional
Abelmoschus esculentus [21] = assay: Phytotoxicity in Abelmoschus esculentus assessed as shoot length at 0.66 kg a.i/ha treated to soil after 7 weeks (reference value: 8.5 +/- 0.34 mm); format: organism-based; details: in vivo, other, 1176 h
Calopogonium mucunoides [22] = assay: Herbicidal activity against Calopogonium mucunoides in Abelmoschus esculentus plots assessed as weed cover at 0.66 kg a.i/ha after 7 weeks (reference value: 14.7 +/- 0.46 %); format: functional
Euphorbia heterophylla [23] = assay: Herbicidal activity against Euphorbia heterophylla in Abelmoschus esculentus plots assessed as weed recovery at 0.33 kg a.i/ha after 2 weeks (reference value: 60.1 +/- 0.46 %); format: functional
Corchorus olitorius [24] = assay: Phytotoxicity in Corchorus olitorius assessed as seedling injury at 1.32 kg a.i/ha applied as solution after 7 weeks relative to control; format: organism-based; details: in vivo, other, 1176 h
Synedrella nodiflora [25] = assay: Herbicidal activity against Synedrella nodiflora in Corchorus olitorius plots assessed as weed cover at 0.99 kg a.i/ha after 7 weeks (reference value: 1.7 +/- 0.56 %); format: functional
Chromolaena odorata [26] = assay: Herbicidal activity against Chromolaena odorata in Corchorus olitorius plots assessed as weed cover at 1.32 kg a.i/ha after 2 weeks (reference value: 81.7 +/- 0.43 %); format: functional
Chromolaena odorata [27] = assay: Herbicidal activity against Chromolaena odorata in Corchorus olitorius plots assessed as minor weed growth at 1.32 kg a.i/ha after 2 weeks; format: functional
Euphorbia heterophylla [28] = assay: Herbicidal activity against Euphorbia heterophylla in Abelmoschus esculentus plots assessed as weed recovery at 0.66 kg a.i/ha after 2 weeks (reference value: 60.1 +/- 0.46 %); format: functional
Mimosa pudica = assay: Herbicidal activity against Mimosa pudica in Abelmoschus esculentus plots assessed as weed cover at 0.33 kg a.i/ha after 2 weeks (reference value: 63.5 +/- 0.29 %); format: functional
Calopogonium mucunoides [29] = assay: Herbicidal activity against Calopogonium mucunoides in Abelmoschus esculentus plots assessed as weed cover at 1.32 kg a.i/ha after 7 weeks (reference value: 14.7 +/- 0.46 %); format: functional
Abelmoschus esculentus [30] = assay: Phytotoxicity in Abelmoschus esculentus assessed as seedling emergence at 0.99 kg a.i/ha treated to soil after 7 weeks (reference value: 95 +/- 0.05 %); format: organism-based; details: in vivo, other, 1176 h
Calopogonium mucunoides [31] = assay: Herbicidal activity against Calopogonium mucunoides in Abelmoschus esculentus plots assessed as major weed growth at 0.99 kg a.i/ha after 2 weeks; format: functional
[32] = system: Rottboellia cochinchinensis; assay: Herbicidal activity against Rottboellia cochinchinensis in Abelmoschus esculentus plots assessed as weed cover at 0.33 kg a.i/ha after 4 weeks (reference value: 22.6 +/- 0.49 %); format: functional
Calopogonium mucunoides [33] = assay: Herbicidal activity against Calopogonium mucunoides in Corchorus olitorius plots assessed as weed recovery at 1.32 kg a.i/ha after 2 weeks (reference value: 78.3 +/- 0.74 %); format: functional
Cyperus rotundus [34] = assay: Herbicidal activity against Cyperus rotundus form in Abelmoschus esculentus plots assessed as minor weed growth at 0.66 kg a.i/ha after 2 weeks; format: functional

CCC(CC)Nc1c([N+](=O)[O-])cc(C)c(C)c1[N+](=O)[O-] [PENDIMETHALIN]
Activity (Synedrella nodiflora [1]): 51.7%
Activity (Corchorus olitorius [2]): 3.1 mm
Activity (Cyperus rotundus [3]): 90%
Activity [4]: 39.2%
Activity (Talinum fruticosum [5]): 83.9%
Activity (Corchorus olitorius [6]): 16.4 mm
Activity (Ageratum conyzoides [7]): 31.7%
Activity (Euphorbia heterophylla [8]): 36.2%
Activity (Asteraceae): 1 /m2
Activity (Euphorbia heterophylla [9]): 63.3%
Activity (Ageratum conyzoides [10]): 56.8%
Activity (Corchorus olitorius [11]): 18.8 mm
Activity (Talinum fruticosum [12]): 1 /m2
Activity (Commelina diffusa): 100%
Activity (Corchorus olitorius [13]): 72.7%
Activity (Chromolaena odorata [14]): 13.3%
Activity (Calopogonium mucunoides [15]): 31 /m2
Activity (Calopogonium mucunoides [16]): 63.3%
Activity (Euphorbia heterophylla [17]): 31 /m2
Activity (Corchorus olitorius [18]): 6 mm
Activity (Corchorus olitorius [19]): 84.7%
Activity (Chromolaena odorata [20]): 73.3%
Activity (Abelmoschus esculentus [21]): 5.8 mm
Activity (Calopogonium mucunoides [22]): 90%
Activity (Euphorbia heterophylla [23]): 39.2%
Activity (Corchorus olitorius [24]): 66.7%
Activity (Synedrella nodiflora [25]): 95%
Activity (Chromolaena odorata [26]): 41.7%
Activity (Chromolaena odorata [27]): 1 /m2
Activity (Euphorbia heterophylla [28]): 47.9%
Activity (Mimosa pudica): 56.8%
Activity (Calopogonium mucunoides [29]): 82.4%
Activity (Abelmoschus esculentus [30]): 85%
Activity (Calopogonium mucunoides [31]): 31 /m2
Activity [32]: 53.8%
Activity (Calopogonium mucunoides [33]): 13.3%
Activity (Cyperus rotundus [34]): 1 /m2
